Patent US11186585B2 (priority 2018, dated 2021)
Where “and” joins values, the source holds several entries; their conditions need not be identical. Identical values can stand only once. Counter-ions that a name gives are not always drawn.

Legend:
[1] = tested on: Sprague-Dawley rats; assay: Antinociceptive activity, cold ethanol tail-flick test after oral gavage; type: in vivo, rat; settings: for Analgesia (rat): oral gavage in sesame oil, 60 uM/kg, one dose, tail-flick at −20° C., cutoff 40 seconds; for analgesia in rats, in words: given orally, compared with equivalent dose of Nalbuphine (parent opioid)
[2] = Stability in the simulated gastro-intestinal fluid (sGIF); settings: 0.5% pepsine in 0.1N aqueous HCl, 37° C.; acceptance: NLT 80% of the derivative still intact after 4 hrs
[3] = Stability in human plasma; settings: 37° C., acceptance criteria: NLT than 20% of hydrolysis after 4 hrs
[4] = tested on: rats; assay: Randall-Selitto test after SC dose; type: in vivo, rat; settings: NB-33.HCl 3.9 mg/kg; for Randall-Selitto (g), individual animal: NB.HCl 3 mg/kg; for Randall-Selitto (g), Mean: mean of 5, NB.HCl 3 mg/kg
Source text: FIG. 13 illustrate in the graphical form the results for 1310 NB-33, marked 1310, in comparison to the base NB compound NB, marked 1320 in FIG. 13.

Row | SMILES | Analgesia (rat) [1] | Stable in sGIF [2] | Stable in plasma [3] | analgesia in rats, in words [1] | further results
1 | CC(C)=CCC/C(C)=C/COc1ccc2c3c1OC1C(O)CCC4(O)C(C2)N(CC2CCC2)CCC314 (stereo not drawn) [NB-20, (E)-3-(cyclobutylmethyl)-9-((3,7-dimethylocta-2,6-dien-1-yl)oxy)-1,2,3,4,5,6,7,7a-octahydro-4aH-4,12-methanobenzofuro[3,2-e]isoquinoline-4a,7-diol] | No | No | No |  | 
2 | CC(C)=CCC/C(C)=C/CC/C(C)=C/COc1ccc2c3c1OC1C(O)CCC4(O)C(C2)N(CC2CCC2)CCC314 (stereo not drawn) [NB-28, 3-(cyclobutylmethyl)-9-(((2E,6E)-3,7,11-trimethyldodeca-2,6,10-trien-1-yl)oxy)-1,2,3,4,5,6,7,7a-octahydro-4aH-4,12-methanobenzofuro[3,2-e]isoquinoline-4a,7-diol] | No | No | No |  | 
3 | C=CCCCCCCCCC(=O)Oc1ccc2c3c1OC1C(O)CCC4(O)C(C2)N(CC2CCC2)CCC314 (stereo not drawn) [NB-31, 3-(cyclobutylmethyl)-4a,7-dihydroxy-2,3,4,4a,5,6,7,7a-octahydro-1H-4,12-methanobenzofuro[3,2-e]isoquinolin-9-yl undec-10-enoate] | Inactive | Yes | No | no analgesia | 
4 | CC(C)=CCC/C(C)=C/C(=O)Oc1ccc2c3c1OC1C(O)CCC4(O)C(C2)N(CC2CCC2)CCC314 (stereo not drawn) [NB-32, 3-(cyclobutylmethyl)-4a,7-dihydroxy-2,3,4,4a,5,6,7,7a-octahydro-1H-4,12-methanobenzofuro[3,2-e]isoquinolin-9-yl (E)-3,7-dimethylocta-2,6-dienoate] | Inactive | Yes | No | no analgesia | 
5 | CC(C)C(=O)Oc1ccc2c3c1OC1C(O)CCC4(O)C(C2)N(CC2CCC2)CCC314 (stereo not drawn) [NB-46, 3-(cyclobutylmethyl)-4a,7-dihydroxy-2,3,4,4a,5,6,7,7a-octahydro-1H-4,12-methanobenzofuro[3,2-e]isoquinolin-9-yl isobutyrate] | No | Yes | Yes |  | 
6 | CC(C)=CC(=O)Oc1ccc2c3c1OC1C(O)CCC4(O)C(C2)N(CC2CCC2)CCC314 (stereo not drawn) [NB-51, 3-(cyclobutylmethyl)-4a,7-dihydroxy-2,3,4,4a,5,6,7,7a-octahydro-1H-4,12-methanobenzofuro[3,2-e]isoquinolin-9-yl 3-methylbut-2-enoate] | Inactive | Yes | No |  | 
7 | C/C=C(\C)C(=O)Oc1ccc2c3c1OC1C(O)CCC4(O)C(C2)N(CC2CCC2)CCC314 (stereo not drawn) [NB-52, 3-(cyclobutylmethyl)-4a,7-dihydroxy-2,3,4,4a,5,6,7,7a-octahydro-1H-4,12-methanobenzofuro[3,2-e]isoquinolin-9-yl (E)-2-methylbut-2-enoate] | Inactive | Yes | No | no analgesia | 
8 | Oc1ccc2c3c1O[C@H]1[C@@H](O)CC[C@@]4(O)[C@@H](C2)N(CC2CCC2)CC[C@]314 [NB.HCl] |  |  |  |  | Randall-Selitto (g), individual animal ([4]; Post-dose 0.5 hr): 78 g and 89 g and 93 g and 107 g and 134 g; Randall-Selitto (g), Mean ([4]; Post-dose 0.5 hr): 100.2 g; Randall-Selitto (g), individual animal ([4]; Post-dose 1 hr): 63 g and 62 g and 92 g and 90 g and 96 g; Randall-Selitto (g), Mean ([4]; Post-dose 1 hr): 80.6 g; Randall-Selitto (g), individual animal ([4]; Post-dose 2 hr): 58 g and 71 g and 103 g and 69 g and 93 g; Randall-Selitto (g), Mean ([4]; Post-dose 2 hr): 78.8 g; Randall-Selitto (g), individual animal ([4]; Post-dose 4 hr): 64 g and 66 g and 93 g (2×) and 61 g; Randall-Selitto (g), Mean ([4]; Post-dose 4 hr): 75.4 g; Randall-Selitto (g), individual animal ([4]; Post-dose 6 hr): 50 g and 71 g and 82 g and 69 g and 85 g; Randall-Selitto (g), Mean ([4]; Post-dose 6 hr): 71.4 g; Randall-Selitto (g), individual animal ([4]; Pre-treatment (baseline)): 89 g and 92 g and 100 g and 80 g and 91 g; Randall-Selitto (g), Mean ([4]; Pre-treatment (baseline)): 90.4 g
